This passage reports IC50 results from ChEMBL document CHEMBL1130893, “Inhibition of HIV integrase by novel nucleotides bearing tricyclic bases” (Bioorg Med Chem Lett, 1998).

For assay [1], the target named is T1, Human immunodeficiency virus type 1 integrase (Human immunodeficiency virus 1, UniProt Q7ZJM1). Description: Inhibitory activity against HIV integrase in the strand transfer step.
The target in assay [2] is T1, Human immunodeficiency virus type 1 integrase. Description: Inhibitory activity against HIV integrase in the 3' processing step.

SMILES strings stand for the structures.

T1 sequence (Q7ZJM1 whole entry): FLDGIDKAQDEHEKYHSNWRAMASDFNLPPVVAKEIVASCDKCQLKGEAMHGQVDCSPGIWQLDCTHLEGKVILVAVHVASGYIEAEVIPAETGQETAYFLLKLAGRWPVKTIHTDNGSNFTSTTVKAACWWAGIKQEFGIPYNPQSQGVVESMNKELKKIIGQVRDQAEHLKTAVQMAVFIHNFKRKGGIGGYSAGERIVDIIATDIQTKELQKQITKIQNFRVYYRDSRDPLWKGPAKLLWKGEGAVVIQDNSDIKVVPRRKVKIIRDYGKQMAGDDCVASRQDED

In the case of `Nc1ncnc2cc3c(cc12)ncn3C1COC(COP(=O)(O)O)C1` (stereo not given), the IC50 (in general, the concentration that inhibits the measured activity by half) in assay [1] stood at 68 µM.
Take `Nc1ncnc2cc3c(cc12)ncn3C1CCC(COP(=O)(O)O)O1` (stereo not given): the IC50 is 750 µM in assay [2] and 550 µM in assay [1].
Regarding `Nc1ncnc2c1ccc1ncn(C3COC(COP(=O)(O)O)C3)c12` (stereo not given), the IC50 in assay [2] came to 75 µM; in assay [1], 53 µM.
